# Where two headings read alike, the source gives them in different places.
# Experiments:
# Type in all cases: cell-based
# [1] = tested on: HT-29 colon carcinoma cells; assay: Proliferation (DNA synthesis, colorimetric BrdU-ELISA); conditions: Homo sapiens
# Experimental: (§1) Human colon carcinoma cells HT-29 were purchased from ATCC and cultivated under standard conditions (37°C, 5% CO2, McCoy 5A medium, 10% fetal calf serum, penicillin, streptomycin). For experimentation, cells were seeded in cell culture dishes at appropriate density, stimulated and analysed as described in the following section.
# Quantitative determination of DNA synthesis in replicating cells was analyzed using commercial available test kits (colorimetric BrdU-ELISA, Roche-Diagnostics) according to the manufacturer's instructions. For these experiments, HT-29 colon carcinoma cells were seeded in 96-well plates at 40% confluence, cultivated overnight (1% FCS), incubated for 16 h with the test compounds (concentration range: three orders of magnitude), pulsed labelled with BrdU and fixed. The amount of incorporated BrdU was analysed using specific antibodies (Roche Diagnostics, Mannheim, Germany) and subsequent colorimetric reaction. The rate of DNA-synthesis in untreated control cells with standard medium was determined and compared with that in a medium contained the test compounds.
# Semiconfluent HT-29 cells were incubated with compound 4 at concentration as indicated over night and DNA synthesis was analyzed on the basis of BrdU-incorporation and subsequent immunological quantification. Compound 4 inhibited cellular proliferative activity with an apparent IC50 of among 6,7 µM. […] Due to previous calculation using dependent variables over several orders of magnitudes, no standard deviation is given in Table 1 presenting the averaged half maximal concentrations for inhibition of proliferative activity.
# [2] = tested on: human adenocarcinoma cell line HT 29; assay: Induction of apoptosis (YOPRO-1 / Hoechst 33342 staining, count of apoptotic cells); conditions: HT 29 cells, mean (MW), spontaneous apoptosis rate 2.48 % ± 0.58, unit only printed
# Experimental: as §1
# Apoptotic macrophages and colon carcinoma cells were identified by microscopic observation of typical morphological changes (blebbing, generation of apoptotic bodies) and quantitated by YOPRO-1 staining and Hoechst 33342 dye. The percentage of apoptotic cells was counted using a microscope fitted with mercury light source and fluorescence assembly in combination with a computer-assisted morphometry system. Apoptosis was confirmed by PARP cleavage detected by Western Blotting and single cell electrophoresis (COMET-assay).
# (§2) Induction of apoptosis was determined in the human adenocarcinoma cell line HT 29 as described in Example 1; spontaneous apoptosis rate was 2.48 % ± 0.58. The activation of acidic sphingomyelinase (aSMase) was analyzed in the same cell line as described in Example 1, basal activity amounts to 278,4 pmolµg^-1min^-1 ± 41,3.
# [3] = biological target: T1, acidic sphingomyelinase (aSMase) (Homo sapiens, UniProt P17405); assay: SMase activity determination (activation of aSMase in cells, NBD-sphingomyelin hydrolysis); conditions: HT 29 cells, mean (MW), basal activity 278,4 ± 41,3, unit only printed
# T1 construct: endogenous in cells; host or cells: HT 29 (human adenocarcinoma cell line)
# T1 sequence (P17405 47-631): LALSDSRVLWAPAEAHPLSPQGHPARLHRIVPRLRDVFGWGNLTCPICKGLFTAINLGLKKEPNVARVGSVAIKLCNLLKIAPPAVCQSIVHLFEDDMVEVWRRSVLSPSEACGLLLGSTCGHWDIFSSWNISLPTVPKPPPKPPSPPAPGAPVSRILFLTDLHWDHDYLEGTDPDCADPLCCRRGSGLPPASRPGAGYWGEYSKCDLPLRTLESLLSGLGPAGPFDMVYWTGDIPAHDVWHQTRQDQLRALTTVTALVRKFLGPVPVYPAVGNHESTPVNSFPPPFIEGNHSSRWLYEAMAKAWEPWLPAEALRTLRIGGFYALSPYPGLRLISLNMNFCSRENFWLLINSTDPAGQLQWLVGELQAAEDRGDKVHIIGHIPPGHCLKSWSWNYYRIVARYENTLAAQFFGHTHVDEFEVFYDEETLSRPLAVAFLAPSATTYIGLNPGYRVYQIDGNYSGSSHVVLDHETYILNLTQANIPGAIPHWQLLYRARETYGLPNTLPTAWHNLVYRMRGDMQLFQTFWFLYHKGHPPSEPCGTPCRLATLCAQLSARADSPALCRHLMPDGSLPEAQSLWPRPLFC
# Experimental: Activities of aSMase and nSMase were determined by hydrolysis of a fluorogenic C12-analogue substrate [(7-Nitro-2-1,3-benzoxadiazol-4-yl)amino-dodecyl-D-erythro-sphingosine, NBD-sphingomyelin, Molecular Probes, subsequent separation of the labelled NBD ceramide analog by thin layer chromatography and data analysis at conditions as described in detail previously.
# as §2
# [4] = HT-29 cells, BrdU incorporation, averaged half maximal concentrations, no standard deviation, read-out: Anti-Prolif. IC50
# [5] = semiconfluent HT-29 cells, incubation over night, BrdU-incorporation, read-out: apparent IC50 / half maximal antiproliferative activity
"IC50 [1, 4] [µM]","IC50 [1, 5] [µM]",aSMase-activity 5 μM MW [3],aSMase-activity 20 μM MW [3],SMILES,Induction of apoptosis 5 μM MW [2],Induction of apoptosis 10 μM MW [2],Induction of apoptosis 30 μM MW [2]
4,~4,"427,3 pmolµg^-1min^-1","743,4 pmolµg^-1min^-1","CCCCCCCCCCCCC/C=C/[C@@H](O)[C@H](CO)NC(=O)CCCCC [Ceramide C6, reference compound]","2,6%","6,4%","12,4%"
2.4,–,"541,3 pmolµg^-1min^-1","631,0 pmolµg^-1min^-1","CCCCCC(=O)N[C@@H](CO)[C@@H](O)c1ccc([N+](=O)[O-])cc1 [Compound 1, Hexanoic acid [(1S,2S)-2-hydroxy-1-hydroxymethyl-2-(4-nitrophenyl)-ethyl]-amide]","1,3%","8,4%","8,9%"
4.6,–,"347,0 pmolµg^-1min^-1","1185,4 pmolµg^-1min^-1","CCCCCC(=O)N[C@@H](CO)[C@H](O)C1=CCCC1 [Compound 2, Hexanoic acid ((1S,2R)-2-cyclopent-1-enyl-2-hydroxy-1-hydroxymethyl-ethyl)-amide]","15,7%","4,9%","5,9%"
3.1,–,"403,8 pmolµg^-1min^-1","1108,4 pmolµg^-1min^-1","CCCCCC(=O)N[C@@H](CO)[C@H](O)/C1=C/CCCCCC1 [Compound 3, Hexanoic acid [(1S,2R)-2-((E)-cyclooct-1-enyl)-2-hydroxy-1-hydroxymethyl-ethyl]-amide]","2,9%","7,4%","5,7%"
6.7,~6.7,"574,2 pmolµg^-1min^-1","812,7 pmolµg^-1min^-1","CC(C)(C)OC(=O)N1[C@H]([C@H](O)C2=CCCC2)COC1(C)C [Compound 4, (S)-4-((R)-Cyclopent-1-enyl-hydroxy-methyl)-2,2-dimethyloxazolidine-3-carboxylic acid tert-butyl ester]","3,95%","8,5%","10,2%"
3.2,–,"447,3 pmolµg^-1min^-1","967,3 pmolµg^-1min^-1","CC(C)(C)OC(=O)N1[C@H]([C@H](O)/C2=C/CCCCCC2)COC1(C)C [Compound 5, (S)-4-[(R)-((E)-Cyclooct-1-enyl)-hydroxy-methyl]-2,2-dimethyloxazolidine-3-carboxylic acid tert-butyl ester]","6,4%","7,7%","9,2%"
